How the values were obtained:
Assay in all cases: relative viability (nuclei count vs DMSO), 5 days (fraction); higher = more cells survive
PAC-1 + Foretinib = compound: C=CCc1cccc(/C=N/NC(=O)CN2CCN(Cc3ccccc3)CC2)c1O [PAC-1] + COc1cc2c(Oc3ccc(NC(=O)C4(C(=O)Nc5ccc(F)cc5)CC4)cc3F)ccnc2cc1OCCCN1CCOCC1 [Foretinib] (partner 0.25 µM)
How it was run: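 Lung cancer cell lines were pin-tool dosed in 1536-well plates on the day after seeding, with either a lone drug or a fixed anchor-drug dose plus five library-drug doses (not always all listed) in √10 steps. Nuclei were counted on 4× images after 5 days. Relative viability is the ratio of treated-well to vehicle-well nuclei counts, with each value a median of duplicate plates.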

BMX-IN-1 = compound: C=CC(=O)Nc1cc(-n2c(=O)ccc3cnc4ccc(-c5ccc(NS(C)(=O)=O)cc5)cc4c32)ccc1C [BMX-IN-1]
How it was run: (§1)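 Nuclei counted with MetaXpress define viability as the ratio of treated to vehicle wells, given as a median across plates. The lung cancer cell lines were in 1536-well plates, pinned with five √10-spaced library-drug doses and imaged at 4× after 5 days and Hoechst staining. Plates passed with control CV below 25% and at least one doubling.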

PAC-1 = compound: C=CCc1cccc(/C=N/NC(=O)CN2CCN(Cc3ccccc3)CC2)c1O [PAC-1]
How it was run: as §1

Ibrutinib = compound: C=CC(=O)N1CCC[C@@H](n2nc(-c3ccc(Oc4ccccc4)cc3)c3c(N)ncnc32)C1 [Ibrutinib]
How it was run: as §1

| Cell Line | relative viability (PAC-1 + Foretinib; first compound 0.02 µM) | relative viability (PAC-1 + Foretinib; first compound 0.06325 µM) | relative viability (PAC-1 + Foretinib; first compound 0.2 µM) | relative viability (PAC-1 + Foretinib; first compound 2 µM) | relative viability (BMX-IN-1; 0.02 µM) | relative viability (BMX-IN-1; 0.2 µM) | relative viability (BMX-IN-1; 0.6325 µM) | relative viability (BMX-IN-1; 2 µM) | relative viability (PAC-1; 0.02 µM) | relative viability (PAC-1; 0.06325 µM) | relative viability (PAC-1; 0.2 µM) | relative viability (PAC-1; 2 µM) | relative viability (Ibrutinib; 0.005 µM) | relative viability (Ibrutinib; 0.01581 µM) | relative viability (Ibrutinib; 0.05 µM) | relative viability (Ibrutinib; 0.1581 µM) | relative viability (Ibrutinib; 0.5 µM) |
| --- | --- | --- | --- | --- | --- | --- | --- | --- | --- | --- | --- | --- | --- | --- | --- | --- | --- |
| Calu-6 | 0.883 | 0.89 | 0.952 | 0.944 | 1.14 | 1.06 | 1.2 | 0.999 | 0.98 | 1.01 | 0.964 | 1.01 | 1.1 | 0.965 | 1 | 1.01 | 1.03 |
| ChaGo-K-1 | 0.974 | 0.949 | 0.866 | 1.04 | 1.14 | 1.05 | 0.963 | 1.02 | 1.05 | 1.01 | 1 | 0.929 | 0.953 | 0.95 | 0.958 | 0.913 | 1.02 |
| EBC-1 | 0.105 | 0.0969 | 0.139 | 0.121 | 1.06 | 0.952 | 1.14 | 0.964 | 1.04 | 0.932 | 0.949 | 1 | 1.09 | 0.947 | 0.922 | 0.97 | 1.06 |
| EKVX | 0.886 | 0.792 | 0.69 | 0.427 | 1.02 | 0.944 | 1.02 | 1.01 | 1.02 | 0.977 | 0.934 | 0.98 | 0.955 | 0.95 | 0.901 | 0.849 | 0.584 |
| EMC-BAC-2 | 0.999 | 1.04 | 0.936 | 0.996 | 1 | 1.13 | 1.07 | 0.95 | 0.998 | 1.02 | 1.09 | 0.97 | 0.897 | 1.01 | 0.739 |  | 0.96 |
| EPLC-272H | 0.605 | 0.683 | 0.68 | 0.721 | 1.01 | 0.954 | 0.874 | 0.952 | 0.877 | 1.04 | 0.941 | 0.929 | 0.681 | 0.859 | 0.677 | 0.686 | 0.664 |
| HCC-44 |  |  |  |  | 1.03 | 1.06 | 1.13 | 0.998 | 0.99 | 1.05 | 0.997 | 0.981 | 1.04 | 0.995 | 0.994 | 1.02 | 1.04 |
| NCI-H522 |  |  |  |  | 0.882 | 0.906 | 1.04 | 0.938 | 1.08 | 1.1 | 0.872 | 1.05 | 0.796 | 1.09 | 0.85 | 0.752 | 0.76 |
| NCI-H1648 |  |  |  |  | 0.937 | 0.878 | 0.792 | 0.829 | 0.795 | 1.07 | 0.931 | 0.991 | 0.758 | 0.751 | 0.676 | 0.792 | 0.63 |
| NCI-H1792 |  |  |  |  | 1.03 | 1.2 | 1.5 | 0.991 | 0.951 | 0.991 | 0.996 | 0.95 |  | 1.06 | 0.925 | 0.567 | 0.762 |

From the supplement of paper PMC10307832
